According to patent US20140155384A1, “COMPOUNDS AND METHODS OF TREATING DIABETES” (Medivation Technologies, Inc., priority 2011, published 2014):

Biological target: T1, human recombinant adrenergic α2A receptor (Homo sapiens, UniProt P08913)
T1 construct: expressed in transfected cells; host or cells: insect Sf9 cells
T1 sequence (P08913 1-465): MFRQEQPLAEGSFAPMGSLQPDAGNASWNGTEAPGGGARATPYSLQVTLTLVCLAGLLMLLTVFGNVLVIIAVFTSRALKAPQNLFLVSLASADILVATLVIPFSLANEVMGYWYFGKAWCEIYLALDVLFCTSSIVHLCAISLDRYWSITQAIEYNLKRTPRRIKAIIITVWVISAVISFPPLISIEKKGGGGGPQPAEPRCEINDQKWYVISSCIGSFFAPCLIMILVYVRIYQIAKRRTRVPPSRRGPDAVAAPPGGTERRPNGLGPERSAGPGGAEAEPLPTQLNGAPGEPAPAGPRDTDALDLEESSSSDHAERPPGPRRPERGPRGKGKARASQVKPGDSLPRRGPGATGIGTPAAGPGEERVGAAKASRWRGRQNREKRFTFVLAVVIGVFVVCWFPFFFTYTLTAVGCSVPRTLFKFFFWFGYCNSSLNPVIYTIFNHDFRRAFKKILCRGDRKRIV
Test: Radioligand binding, adrenergic α2A receptor ([3H]MK-912)
Settings: Sf9 cells, 1 nM [3H]MK-912; for inhibition at 0.03 µM / inhibition at 0.1 µM: read-out: Percentage inhibition of ligand binding, Adrenergic α2A
Outline: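 Percent inhibition of specific [3H]MK-912 (1 nM) binding measured by filtration counting, compounds tested at ≤1 μM in 1% DMSO. Receptor: human α2A from Sf9 cells; incubation 60 min, 25 °C, pH 7.4; 10 μM WB-4101 defined nonspecific binding.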

| SMILES | inhibition at 0.03 µM (0.03 μM compound) | inhibition at 0.1 µM (0.1 μM compound) | Percentage inhibition of ligand binding, Adrenergic α2A (0.03 μM compound) | Percentage inhibition of ligand binding, Adrenergic α2A (0.1 μM compound) |
| --- | --- | --- | --- | --- |
| Cc1csc(-c2cscc2-n2c3c(c4cc(C)ccc42)CN(C)CC3)c1 [Compound 50] | 82% | 88% | – | – |
| Cc1ccc2c(c1)c1c(n2-c2cscc2-c2ccc3cnccc3c2)CCN(C)C1 [Compound No. 68] | 76% | 86% | – | – |
| Cc1ccc2c(c1)c1c(n2-c2ccccc2-c2cccn2C)CCN(C)C1 [Compound No. 100, 2,8-dimethyl-5-(2-(1-methyl-1H-pyrrol-2-yl)phenyl)-2,3,4,5-tetrahydro-1H-pyrido[4,3-b]indole] | 74% | 84% | – | – |
| Cc1ccc2c(c1)c1c(n2-c2ccccc2-c2ccc3c(ccn3C)c2)CCN(C)C1 [Compound No. 85, 2,8-dimethyl-5-(2-(1-methyl-1H-indol-5-yl)phenyl)-2,3,4,5-tetrahydro-1H-pyrido[4,3-b]indole] | 80% | 89% | – | – |
| Cc1ccc2c(c1)c1c(n2-c2cscc2-c2ccc3c(ccn3C)c2)CCN(C)C1 [Compound 33] | 87% | 92% | 96% | 96% |
| Cc1ccc2c(c1)c1c(n2-c2cscc2-c2ccc(S(C)(=O)=O)cc2)CCN(C)C1 [Compound No. 76] | 44% | – | – | 68% |
| Cc1ccc2c(c1)c1c(n2-c2cscc2-c2ccc(C)s2)CCN(C)C1 [Compound No. 79] | 82% | 90% | – | – |
| COc1ccc(-c2cscc2-n2c3c(c4cc(C)ccc42)CN(C)CC3)cc1 [Compound 37] | 81% | 88% | – | – |
